From US20180098950A1, “INHIBITORS OF ABETA AND SYNUCLEIN AGGREGATION” (The Feinstein Institute For Medical Research, priority 2006, published 2018)
Values joined by “and” are separate entries in the source; they are usually repeats but may differ in a detail not shown here. Equal entries are not always repeated. “Also recorded” adds a separate entry of the source. Where two headings read alike, the source gives them in different places.

What was measured:
[1] = molecular target: T1, Aβ42 (Homo sapiens, UniProt P05067); test: Anti-oligomer antibody ELISA, Aβ42
T1 construct: less abundant 42-amino acid form (Aβ42)

[2] = molecular target: synuclein (Homo sapiens, UniProt P37840); test: Anti-oligomer antibody ELISA, synuclein
Experimental: The ability of CNI-1493 to prevent aggregation of synuclein was tested by determining the recognition of synuclein by an anti-oligomer antibody (gift of Dr. C. Glabe, University of California at Irvine) in an ELISA assay.

[3] = molecular target: T2, Aβ40 (Homo sapiens, UniProt P05067); test: Anti-oligomer antibody ELISA, Aβ40
T2 construct: The 40-amino acid form (Aβ340) is the most abundantly produced Aβ peptide

[4] = molecular target: T1, Aβ42; test: Aβ oligomer ELISA with various concentrations of CNI-1493; conditions: Aβ42 with increasing concentrations of CNI-1493
From the text: Aβ42 was combined with various concentrations of CNI-1493 and Aβ oligomers were quantified by ELISA using Aβ oligomer-specific antibodies.

[5] = system: primary neurons; test: Aβ toxicity in primary neurons; format: cell-based
From the text: To determine whether the CNI-1493-treated form of Aβ is toxic, Aβ that had been pretreated with, or without, CNI-1493 was combined with SY5Y neuroblastoma cells. Toxicity was monitored using MTT (thiazolyl blue) reduction (mitochondrial succinate dehydrogenase activity) and lactate dehydrogenase activity (LDH). The MTT and LDH assays correlated with each other. […] Additionally, the protective effect of CNI-1493 was examined in similar assays using primary neurons.

[6] = system: APP-expressing TgCRND8 mice; test: Aβ plaque burden by immunohistochemistry and image analysis in TgCRND8 mice; format: in vivo, mouse; conditions: 8 mg/kg i.p. twice a week for 8 weeks, vs vehicle
Experimental: Animals. All animal procedures were approved by the office of the district president and the institutional animal care and use committee for the University of Munster. We used the TgCRND8 mouse line (courtesy of David Westaway, University of Toronto, Toronto, Ontario, Canada). TgCRND8 mice encode a double mutant form of amyloid precursor protein 695 (KM670/671 NL+V717F) under the control of the PrP gene promoter (Chishti et al., 2001). Thioflavine S-positive Aβ amyloid deposits are present at 3 months, with dense-cored plaques and neuritic pathology evident from 5 months of age.
(§1) Drug treatment of TgCRND8 mice. APP transgenic TgCRND8 mice at 4 months old received twice a week an i.p. injection of 200 μl containing 200 μg CNI-1493 (8 mg/kg) for 8 weeks. There were four animals in each treatment group. Animals were housed singly in individual cages. At the end of the experimental period, animals were killed by decapitation. The brain was dissected and the hemispheres separated along the midline. One hemisphere was fixed in 4% buffered formaldehyde for 24 h followed by dehydration and paraffin embedding. The other hemisphere was immediately snap-frozen in liquid nitrogen and kept at −80° C.
Immunohistochemistry. Three pairs of 2 μm sagittal brain sections of each transgenic animal were stained for Aβ immunoreactivity. The pairs (10 μm distance) were situated 100 μm, 200 μm and 300 μm lateral from the mid-sagittal fissure. All slices were pretreated with formic acid and automatically stained in a TechMate Instrument (Dako Cytomation, Hamburg, Germany) with 6F/3D anti-Aβ monoclonal antibody to residues 8-17 (Dako, 1:100). For further steps, the Dako StreptABC complex-horseradish peroxidase conjugated “Duet” anti mouse/rabbit antibody kit was used and developed with 3, 3′-diaminobenzidine (DAB) as chromogen. Counterstaining was performed with hematoxylin. All slides were stained in two consecutive procedures making sure that brains of both experimental groups were equally distributed in both procedures.
Image analysis. To quantify Aβ plaque burden, cortices and hippocampi of all stained sections were digitalized by a ColorView II, 3, 3 Mega Pixel CCD camera under constant light and filter settings. Color images were converted to greyscale to obtain best contrast between positive immunoreactivity and background. A constant threshold was chosen for all images to detect immunoreactive staining.
Morphometric measurements were performed by image analysis software “SIS analysis Auto Software 3.2” (Soft Imaging System GmbH, http://www.soft-imaging.org/). Total number and surface of plaques was related to the total area analyzed.

[7] = system: N2a cells expressing wild type APP695; test: APP processing analysis in N2a cells; format: cell-based; conditions: 24 h treatment
Experimental: APP processing analysis in N2a cells. APP695-transfected N2a cells (Marambaud et al., 2005) were grown in 1:1 DMEM/Opti-MEM supplemented with 5% FBS, penicillin and streptomycin, and 0.2 mg/ml G418. Cells were treated at confluency for 24 h with the indicated concentrations of CNI-1493. Medium was then changed and treatments were continued for another 2 h to allow Aβ secretion. Twenty microliters of conditioned medium were electrophoresed on 16.5% Tris-Tricine gels and transferred onto […] nitrocellulose membranes. Membranes were then microwaved for 5 min in PBS, blocked in 5% fat-free milk in TBS, and incubated with 6E10 (Signet, 1:1000 in Pierce SuperBlock) overnight at 4° C. Cells were washed with PBS and solubilized in ice-cold HEPES buffer (25 mM HEPES, pH 7.4, 150 mM NaCl, 1× Complete protease inhibitor cocktail, Roche) containing 1% SDS. Ten micrograms of extracts were analyzed by western blot with 6E10, R1 (anti-APP C-terminal domain, reference 21), and LN27 (anti-APP1-200, Zymed).

[8] = system: F4/80 antigen; test: Western blot of F4/80 (microglial activation) in brain of treated TgCRND8 mice; format: in vivo, mouse; conditions: 8 mg/kg i.p. twice a week for 8 weeks, vs control
Experimental: as §1
Biochemical analysis. Half of the brain was weighed and homogenized in an appropriate volume of T-PER (Perbio, Bonn, Germany) in accordance to the guidelines of the manufacturer. Lysate protein concentration was measured by BCA kit (Perbio). 15-60 μg protein per sample was loaded onto a pre-cast NuPAGE Novex 4-12% Bis-Tris gel and separated using the Novex electrophoresis system (Invitrogen, Karsruhe, Germany). Subsequently, the proteins were transferred onto nitrocellulose membranes (Invitrogen) using the XCell II™ blot (Invitrogen). The immobilized proteins were visualized using MemCode reversible protein staining kit (Perbio). […] Equal protein loading of all membranes was assessed by reprobing with monoclonal antibodies against GAPDH (Acris, Hiddenhausen, Germany).

[9] = molecular target: T1, Aβ42; test: Electron microscopy of Aβ42 oligomer fibrilization; conditions: Aβ42 oligomers with vs without CNI-1493

T2 sequence (P05067 672-711 limits assumed): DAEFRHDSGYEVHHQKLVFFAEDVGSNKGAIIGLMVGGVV
T1 sequence (P05067 672-713 limits assumed): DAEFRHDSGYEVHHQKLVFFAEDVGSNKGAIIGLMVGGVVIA

SMILES | recognition by anti-oligomer antibody (aggregation) [1] | recognition by anti-oligomer antibody (aggregation) [2] | recognition by anti-oligomer antibody (aggregation) [3] | recognition by anti-oligomer antibody (aggregation) ([1]; listed as CNI-1492) | Aβ oligomers by ELISA (final OD) [4] | protection from Aβ toxicity [5] | reduction of plaque area (square micrometers per area of interest in square mm) ([6]; cortex) [%] | reduction of plaque number (plaques per area of interest in square mm) ([6]; cortex) [%] | reduction of plaque number (plaques per area of interest in square mm) ([6]; hippocampus) [%] | reduction of plaque area (square micrometers per area of interest in square mm) ([6]; hippocampus, 8 mg/kg) | full length APP production (LN27) [7] | β- or γ-secretase cleavage of APP (C99, C83 fragments) [7] | total Aβ secreted into the medium (western blot, 6E10) ([7]; then medium change and continued treatment) | recognition by anti-oligomer antibody (aggregation) ([2]; listed as CNI-1492) | microglial activation, F4/80 expression in brain (western blot) [8] | formation of fibrillar aggregates (electron microscopy) [9] | recognition by anti-oligomer antibody (aggregation) ([3]; listed as CNI-1492)
N=C(N)c1ccc(OCCCCCOc2ccc(C(=N)N)cc2)cc1 [pentamidine, reference compound] | reduced recognition by the antibody | reduced recognition by the antibody | reduced recognition by the antibody |  |  |  |  |  |  |  |  |  |  |  |  |  | 
CC(=NNC(=N)N)c1cc(NC(=O)CCCCCCCCC(=O)Nc2cc(C(C)=NNC(=N)N)cc(C(C)=NNC(=N)N)c2)cc(C(C)=NNC(=N)N)c1.Cl.Cl.Cl.Cl [CNI-1493, N,N′-bis(3,5-diacetylphenyl)decanediamide tetrakis(amidinohydrazone) tetrahydrochloride] | prevents aggregation | prevents aggregation | prevents aggregation | reduced recognition by the antibody | reduced the final OD in the ELISA; also recorded: reduction in recognition of Aβ oligomers | protected the neurons from Aβ toxicity | 70 | 57 | 60 | 87% and 86% | not accompanied by reduced levels of APP production | no effect | profound dose-dependent decrease of total Aβ accumulation; also recorded: dose-dependent, dramatic reduction; also recorded: profound dose-dependent decrease of total Aβ secretion | reduced recognition by the antibody | significant reduction in microglial activation; also recorded: decrease of F4/80 signal; also recorded: decline of F4/80 in all CNI-1493 animals | do not form the fibrillar aggregates; also recorded: inhibited Aβ42 oligomer fibrilization | reduced recognition by the antibody
